Results: PubChem BioAssay AID248 (DTP/NCI, 2004)
“And” between values parts separate entries of the source, which are not always exact repeats. Equal entries are not always repeated. Inconclusive results and toxic doses are left out. Rule as the data show it: active = T/C of 150% or more; inactive = T/C below 125%.

Test system: L1210 leukemia ip in BDF1 mice, survival T/C
Assay: NCI In Vivo Anticancer Drug Screen. Data for tumor model L1210 Leukemia (intraperitoneal) in B6D2F1 (BDF1) mice
Conditions: endpoint: mean survival time, higher = longer survival
Outline: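 Tumor cells were implanted, animals were treated, and survival was followed. The result divides the treated measurement by the vehicle-control measurement.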

[1] = dose: 12.5 mg/kg/injection, schedule: Q04DX003 (ip), vehicle: saline
[2] = dose: 25.0 mg/kg/injection, schedule: Q04DX003 (ip), vehicle: saline
[3] = dose: 100.0 mg/kg/injection, schedule: Q04DX003 (ip), vehicle: saline with Tween-80
[4] = dose: 200.0 mg/kg/injection, schedule: Q04DX003 (ip), vehicle: saline with Tween-80
[5] = dose: 400.0 mg/kg/injection, schedule: Q04DX003 (ip), vehicle: saline with Tween-80
[6] = dose: 100.0 mg/kg/injection, schedule: Q01DX001 (ip), vehicle: saline with Tween-80
[7] = dose: 100.0 mg/kg/injection, schedule: Q01DX009 (ip), vehicle: saline with Tween-80
[8] = dose: 200.0 mg/kg/injection, schedule: Q01DX001 (ip), vehicle: saline with Tween-80
[9] = dose: 200.0 mg/kg/injection, schedule: Q01DX009 (ip), vehicle: saline with Tween-80
[10] = dose: 400.0 mg/kg/injection, schedule: Q01DX001 (ip), vehicle: saline with Tween-80
[11] = dose: 50.0 mg/kg/injection, schedule: Q01DX009 (ip), vehicle: saline with Tween-80
[12] = dose: 100.0 mg/kg/injection, schedule: Q01DX009 (ip), vehicle: Klucel (hydroxypropylcellulose) (HPC)
[13] = dose: 100.0 mg/kg/injection, schedule: Q04DX003 (ip), vehicle: Klucel (hydroxypropylcellulose) (HPC)
[14] = dose: 200.0 mg/kg/injection, schedule: Q01DX009 (ip), vehicle: Klucel (hydroxypropylcellulose) (HPC)
[15] = dose: 200.0 mg/kg/injection, schedule: Q04DX003 (ip), vehicle: Klucel (hydroxypropylcellulose) (HPC)
[16] = dose: 400.0 mg/kg/injection, schedule: Q01DX009 (ip), vehicle: Klucel (hydroxypropylcellulose) (HPC)
[17] = dose: 400.0 mg/kg/injection, schedule: Q04DX003 (ip), vehicle: Klucel (hydroxypropylcellulose) (HPC)
[18] = dose: 50.0 mg/kg/injection, schedule: Q01DX009 (ip), vehicle: saline
[19] = dose: 200.0 mg/kg/injection, schedule: Q04DX003 (ip), vehicle: saline
[20] = dose: 100.0 mg/kg/injection, schedule: Q01DX009 (ip), vehicle: saline
[21] = dose: 200.0 mg/kg/injection, schedule: Q01DX009 (ip), vehicle: saline

Measured: T/C

Cc1c2ccc3ccccc3c2c(C)[n+]2ccccc12
inactive: dose: 2.0 mg/kg/injection, schedule: Q01DX Z (ip), vehicle: carboxymethylcellulose (CMC) 122 % of control | dose: 4.0 mg/kg/injection, schedule: Q01DX Z (ip), vehicle: carboxymethylcellulose (CMC) 106 % of control | dose: 8.0 mg/kg/injection, schedule: Q01DX Z (ip), vehicle: carboxymethylcellulose (CMC) 93 % of control

Cc1ccc2c(c1)N(CCCN(C)C)c1ccccc1S2
inactive: [1] 102 % of control | [2] 116 % of control

CC(=O)c1ccc(Br)c2ccccc12
inactive: dose: 50.0 mg/kg/injection, schedule: Q04DX003 (ip), vehicle: saline with Tween-80 95 % of control | [3] 100 % of control | [4] 97 % of control | [5] 94 % of control

Cc1ccccc1C(O)c1cnc(C)n1Cc1ccccc1 (centres undefined)
inactive: dose: 50.0 mg/kg/injection, schedule: Q04DX002 (ip), vehicle: saline with Tween-80 105 % of control and 88 % of control | [6] 102 % of control | [7] 100 % of control and 87 % of control | [3] 92 % of control | [8] 90 % of control | [9] 103 % of control | [4] 92 % of control | [10] 93 % of control | dose: 400.0 mg/kg/injection, schedule: Q01DX009 (ip), vehicle: saline with Tween-80 102 % of control | [5] 97 % of control

COc1cccc(N=C(N)N=C(N)N)c1
inactive: dose: 75.0 mg/kg/injection, schedule: Q01DX001 (ip), vehicle: saline 101 % of control | dose: 150.0 mg/kg/injection, schedule: Q01DX001 (ip), vehicle: saline 101 % of control | dose: 300.0 mg/kg/injection, schedule: Q01DX001 (ip), vehicle: saline 107 % of control

COc1ccc(/C=N/NC(=O)CNC(=O)Nc2cccc(Cl)c2Cl)cc1
inactive: [11] 93 % of control | [7] 96 % of control

Cc1ccc(-n2c(=O)c(N=Nc3ccc(Br)cc3)c(O)n(-c3ccccc3C)c2=S)cc1
inactive: dose: 100.0 mg/kg/injection, schedule: Q01DX001 (ip), vehicle: Klucel (hydroxypropylcellulose) (HPC) 95 % of control | dose: 200.0 mg/kg/injection, schedule: Q01DX001 (ip), vehicle: Klucel (hydroxypropylcellulose) (HPC) 88 % of control | dose: 400.0 mg/kg/injection, schedule: Q01DX001 (ip), vehicle: Klucel (hydroxypropylcellulose) (HPC) 88 % of control

CC(=O)CC(=O)Nc1cccc(C)c1C
inactive: [12] 95 % of control | [13] 97 % of control | [14] 88 % of control | [15] 106 % of control | [16] 88 % of control | [17] 105 % of control

Cc1ccc(N(C)CC#CCOc2ccc(Br)cc2)cc1
inactive: dose: 100.0 mg/kg/injection, schedule: Q04DX002 (ip), vehicle: Klucel (hydroxypropylcellulose) (HPC) 105 % of control | dose: 200.0 mg/kg/injection, schedule: Q04DX002 (ip), vehicle: Klucel (hydroxypropylcellulose) (HPC) 99 % of control | dose: 400.0 mg/kg/injection, schedule: Q04DX002 (ip), vehicle: Klucel (hydroxypropylcellulose) (HPC) 99 % of control

CCCCC[C@@H](CN(C)C)[C@H](O)/C=C/c1ccc(Cl)cc1
inactive: dose: 12.5 mg/kg/injection, schedule: Q01DX009 (ip), vehicle: saline 102 % of control | [1] 88 % of control | dose: 25.0 mg/kg/injection, schedule: Q01DX009 (ip), vehicle: saline 98 % of control | [2] 93 % of control | [18] 93 % of control and 97 % of control | dose: 50.0 mg/kg/injection, schedule: Q04DX003 (ip), vehicle: saline 93 % of control | [19] 102 % of control

Cc1ccc(/C([O-])=C(\C(=S)Nc2cccc(C(F)(F)F)c2)[n+]2ccccc2)cc1
inactive: [12] 103 % of control | [14] 103 % of control | [16] 94 % of control

O=C1CCCCCCCCCC/C(=N/O)CCCO1
inactive: [6] 100 % of control | [8] 92 % of control | [10] 89 % of control

CC(=O)NC1=C(NC(C)C)C(=O)c2ccccc2C1=O
inactive: dose: 12.5 mg/kg/injection, schedule: Q04DX003 (ip), vehicle: saline with Tween-80 94 % of control

Cc1ccccc1OCC(=O)O
inactive: [11] 107 % of control | [18] 107 % of control | [7] 98 % of control | [20] 98 % of control | dose: 100.0 mg/kg/injection, schedule: Q04DX003 (ip), vehicle: gum acacia 98 % of control | [9] 98 % of control | [21] 98 % of control | dose: 200.0 mg/kg/injection, schedule: Q04DX003 (ip), vehicle: gum acacia 94 % of control | dose: 400.0 mg/kg/injection, schedule: Q04DX003 (ip), vehicle: gum acacia 93 % of control

CCCCOP(=O)(NC12CC3CC(CC(C3)C1)C2)OCCCC
inactive: [12] 97 % of control | [13] 100 % of control | [14] 97 % of control | [15] 92 % of control | [16] 100 % of control | [17] 96 % of control

CC(C)(C)NC(=O)Nc1ccc2ccccc2c1
inactive: dose: 100.0 mg/kg/injection, schedule: Q01DX009 (ip), vehicle: other 93 % of control | dose: 200.0 mg/kg/injection, schedule: Q01DX009 (ip), vehicle: other 89 % of control | dose: 400.0 mg/kg/injection, schedule: Q01DX009 (ip), vehicle: other 94 % of control

O=S(=O)(O)C1(O)CCCCC1
inactive: [18] 99 % of control | [20] 93 % of control | dose: 100.0 mg/kg/injection, schedule: Q04DX003 (ip), vehicle: saline 102 % of control | [21] 103 % of control | [19] 100 % of control | dose: 400.0 mg/kg/injection, schedule: Q01DX009 (ip), vehicle: saline 113 % of control | dose: 400.0 mg/kg/injection, schedule: Q04DX003 (ip), vehicle: saline 96 % of control

CCOC(=O)C1(C(=O)OCC)CCC(O)N1C(=O)c1cc2c(cc1[N+](=O)[O-])OCO2 (centres undefined)
inactive: [13] 91 % of control | [15] 99 % of control | [17] 100 % of control

COC(=O)c1ccccc1N=Nc1ccc(O)c(C(C)C)c1
inactive: dose: 25.0 mg/kg/injection, schedule: Q01DX009 (ip), vehicle: Klucel (hydroxypropylcellulose) (HPC) 98 % of control | dose: 50.0 mg/kg/injection, schedule: Q01DX009 (ip), vehicle: Klucel (hydroxypropylcellulose) (HPC) 98 % of control | [13] 97 % of control | [15] 100 % of control | [17] 98 % of control

CCC1(c2ccccc2)C(=O)N(Cl)C(=O)N(Cl)C1=O
inactive: dose: 25.0 mg/kg/injection, schedule: Q01DX009 (ip), vehicle: saline with Tween-80 98 % of control | [11] 98 % of control | [7] 93 % of control

CCOC(=O)C[N+]1(C)C2CCC1CC(O)C2 (centres undefined)
inactive: dose: 100.0 mg/kg/injection, schedule: Q01DX001 (ip), vehicle: saline 94 % of control | dose: 200.0 mg/kg/injection, schedule: Q01DX001 (ip), vehicle: saline 90 % of control | dose: 400.0 mg/kg/injection, schedule: Q01DX001 (ip), vehicle: saline 94 % of control
